From patent US7652037B2, “Methods of lowering lipid levels in a mammal” (City Of Hope, priority 2003, dated 2010)
Marks after values point to notes of the source that are not given here.

Legend:
STZ-Diabetic Rats [1] = assay: Plasma lipids and plasma lipid hydroperoxides in STZ-diabetic rats (Example 13); format: in vivo, rat; conditions: for reduction of plasma lipid hydroperoxides: diabetic animals; for reduction in plasma cholesterol / reduction in plasma triglycerides: diabetic rats compared with untreated diabetic animals; for plasma cholesterol / plasma triglycerides: treated diabetic rats, means/SEM; for plasma cholesterol: untreated diabetic 136±13; for plasma triglycerides: untreated diabetic 598±110
Experimental: Diabetes was induced in male Sprague-Dawley rats by a single i.p. injection of STZ (65 mg/kg in citrate buffer, pH 4.5) after an overnight fast. Non-diabetic animals were injected with citrate buffer only. One week after STZ injection, only animals with >20 mmol/L plasma glucose were classified as diabetic and included in the study. Diabetic rats were divided randomly into the following treatment groups: diabetic untreated (D); and two diabetic treatment groups, receiving either LR-9 (D+LR-9) or LR-74 (D+LR-74) at 50 mg/L in drinking water. Three non-diabetic groups were studied concurrently: one untreated non-diabetic group (ND), and two non-diabetic groups treated with either LR-9 (ND+LR-9) or LR-74 (ND+LR-74) at 50 mg/L in drinking water.
At 32 weeks of the study, the rats were killed by over-anesthetization with isoflourane and cardiac puncture. Blood samples were collected from each animal and transferred accordingly into heparinized vacutainer tubes and were later centrifuged for plasma isolation. Aliquots of these plasma samples were stored at −70° C. until the time of analysis. Kidneys were removed immediately, decapsulated and rinsed in PBS buffer. Sections of the left kidneys were stored in 10% neutral buffered formalin for subsequent microscopic examinations and AGE immunohistochemistry. Sections of abdominal skin and tail of each individual rat were removed, rinsed in PBS buffer and stored at −70° C. for subsequent AGE quantification and crosslinking analyses.

STZ-Diabetic Rats [2] = assay: Renal function parameters in STZ-diabetic rats (Example 3); format: in vivo, rat; conditions: for Plasma Creatine / Urinary Albumin / Urinary Albumin/Creatine Ratio: mean ± SD; for decrease of elevated plasma creatinine concentrations: diabetic rats
Experimental: Male Sprague-Dawley rats (about 175 to 200 g) were adapted for one week prior to treatment, then rendered diabetic by intra-peritoneal injection of STZ (65 mg/kg in citrate buffer, pH 4.5) after an overnight fast. Control (non-diabetic) animals were injected with the buffer only. Diabetes was confirmed by measuring the plasma glucose concentrations 7 days after Streptozotocin (STZ)-injection. Only animals with a plasma glucose concentration greater than 20 mmol were classified as diabetic and used in the study. These diabetic rats were divided randomly into an untreated diabetic control group and a diabetic treatment group. The treatment group received an LR compound at 50 mg/l in their drinking water throughout the duration of the study (32 weeks for LR-90; 30 weeks for LR-9 and LR-74). All animals were housed individually and were given free access to food and water.
Blood (from the tail vein) and urine samples were collected from rats for glycemic control analysis and albuminuria measurements. Glycemia was monitored every 8 weeks by measuring plasma glucose and glycated hemoglobin. Plasma or serum also was tested for total cholesterol and total triglycerides. Progression of renal dysfunction was assessed by measuring urinary albumin to creatinine ratio (UA/Cr) and serum or plasma creatinine. For measurement of urinary albumin and creatinine concentrations, rats were housed in metabolic cages for 24 hours and urine was collected in a collection beaker with several drops of toluene to inhibit microbial growth.
Urinary albumin, plasma creatinine concentration, and urinary albumin/creatine ratio (UA/Cr) were used as indicators of renal function.

Human LDL [3] = assay: Cu++-mediated LDL oxidation, TBARS (Example 16); conditions: 250 μM compound, followed for 5 hours; control lag phase about 2 hours
Experimental: Human LDL was isolated from plasma of healthy donors by single vertical spin centrifugation (see Chung et al., Methods Enzymol. 128:181-209, 1986) and used within 24-48 hours of preparation. LDL (50 μg/mL) was incubated at 37° C. in 50 mM chelex-treated phosphate buffer, pH 7.4, alone or in the presence of 5 μM CuCl2 or 5 μM CuCl2 plus various concentrations of the LR compounds. After 5 hours of incubation, aliquots from each reaction mixture were removed for measurement of thiobarbituric acid-reacting substances (TBARS) as described in Satoh, Clin. Chim. Acta 90:37-43, 1978. Briefly, 250 μL of 20% trichloroacetic acid was added to 500 μL of sample aliquot, followed by 750 μL of 1% […]. The samples then were vortexed and incubated in a boiling water bath for 10 minutes. Upon cooling, the samples were centrifuged for 5 minutes at 5000 rpm. Absorbance of the supernatant was taken at 532 nm, and expressed as MDA equivalents using 1,1,3,3-tetramethoxypropane as standards. For fatty acid oxidation studies, linoleic acid (5#mM) was incubated alone or in the presence of 1 mM LR compound in […] phosphate buffer, pH 7.4, for 7 days at 37° C. Aliquots from each reaction mixture were withdrawn periodically for measurement of TBARS as described above.
Results are shown in FIG. 23A, where values are provided as means±SD of two independent experiments (n=4 for each treatment). In separate experiments, the time course for the oxidative modification fo LDL by Cu^++ in the presence of 250 μM compound was followed for 5 hours and aliquots for each time interval were assayed for TBARS. Values in FIG. 23B are means±SD of two independent experiments (n=4 per treatment).

Human LDL [4] = assay: Cu++-mediated oxidation of LDL, TBARS (Example 9); conditions: 5 μM CuCl2, 10-250 μM compound, 5 hours, 37° C.
Experimental: The ability of the LR compounds to inhibit lipid peroxidation was tested using Cu^++-mediated lipid oxidation, a common in vitro model for studies on lipoxidative modifications of proteins. The effects of the LR compounds on lipid peroxidation were studied using Cu^++-mediated oxidation of LDL. Human LDL (50 μg of protein/mL) was incubated at 37° C. in chelex-treated PBS buffer alone or in the presence of 5 μM CuCl2 or 5 μM CuCl2 plus various concentrations of the inhibitor compounds (10-250 μM). After 5 hours of incubation, the amount of thiobarbituric acid reactive substances (expressed as malondialdehyde (MDA) equivalents) generated in the reaction mixture was calculated according to methods described by Dillon et al., Life Sci. #72:1583-1594, 2003. Briefly, aliquots from each sample were precipitated with 20% trichloroacetic acid, centrifuged and an equal volume of 1% thiobarbituric acid was added to the supernatant. The samples then were heated to 95° C. for 10 minutes, and upon cooling, the absorbance was read at 532 nm. Hydrolyzed tetraethoxypropane was used as a standard for the MDA equivalent calculation.

[5] = STZ-diabetic (D) rats, 30 weeks
[6] = non-diabetic (ND) rats, 30 weeks
[7] = STZ-diabetic (D) rats, LR-90, 32 weeks
[8] = non-diabetic (ND) rats, LR-90, 32 weeks

Row | Compound | reduction of plasma lipid hydroperoxides (STZ-Diabetic Rats [1]) | reduction in plasma cholesterol (STZ-Diabetic Rats [1]) | reduction in plasma triglycerides (STZ-Diabetic Rats [1]) | plasma cholesterol (STZ-Diabetic Rats [1]) | plasma triglycerides (STZ-Diabetic Rats [1]) | Plasma Creatine (STZ-Diabetic Rats [2]; [5]) | Urinary Albumin (STZ-Diabetic Rats [2]; [5]) | Urinary Albumin/Creatine Ratio (STZ-Diabetic Rats [2]; [5]) | decrease of elevated plasma creatinine concentrations (STZ-Diabetic Rats [2]) | Plasma Creatine (STZ-Diabetic Rats [2]; [6]) | Urinary Albumin (STZ-Diabetic Rats [2]; [6]) | Urinary Albumin/Creatine Ratio (STZ-Diabetic Rats [2]; [6]) | time course of Cu++-mediated oxidation of LDL (Human LDL [3]) | inhibition of Cu++-mediated LDL oxidation (lipid peroxidation) (Human LDL [4]) | Plasma Creatine (STZ-Diabetic Rats [2]; [7]) | Urinary Albumin (STZ-Diabetic Rats [2]; [7]) | Urinary Albumin/Creatine Ratio (STZ-Diabetic Rats [2]; [7]) | Plasma Creatine (STZ-Diabetic Rats [2]; [8]) | Urinary Albumin (STZ-Diabetic Rats [2]; [8]) | Urinary Albumin/Creatine Ratio (STZ-Diabetic Rats [2]; [8])
1 | CC(C)(Oc1ccc(NC(=O)c2ccc3ccccc3c2)cc1)C(=O)O [LR-9, 4-(2-napthylcarboxamido) phenoxyisobutyric acid] | 35% | ≤ 30% | ≤ 60% | 96 ± 5 mg/dL | 239 ± 50 mg/dL | 1.79 ± 0.95^c mg/dl | 18.0 ± 9.1^c mg/24 hr | 1.36 ± 0.93^c | ~50% | 0.42 ± 0.02 mg/dL | 4.8 ± 2.3 mg/24 hr | 0.33 ± 0.13 | significantly inhibited the rate of oxidation after 2 hours | – | – | – | – | – | – | –
2 | CC(Oc1cccc2cccnc12)C(=O)O (stereo not drawn) [LR-74, 2-(8-quinolinoxy) propionic acid] | 45% | approximately 30% | ~70% | 93 ± 2 mg/dL | 161 ± 29 mg/dL | 1.64 ± 1.07^c mg/dl | 14.3 ± 9.07^c mg/24 hr | 1.23 ± 0.60^c | ~50% | 0.42 ± 0.05 mg/dL | 4.6 ± 2.4 mg/24 hr | 0.30 ± 0.16 | no observable propagation phase | better than AG | – | – | – | – | – | –
3 | methylene bis(4,4′-(2-chlorophenylureidophenoxyisobutyric acid) [LR-90] | – | – | – | – | – | – | – | – | ~50% | – | – | – | no observable propagation phase | better than AG | 1.50 ± 0.53^c mg/dl | 23.6 ± 4.5^c mg/24 hr | 1.57 ± 0.49^c | 0.58 ± 0.07 mg/dL | 8.9 ± 1.5 mg/24 hr | 0.57 ± 0.16
